Tests used:
METTL3/14 = METTL3/14 (Homo sapiens (Human), UniProt Q86U44); assay: METTL3/14 methyltransferase assay (RapidFire mass spectrometry, RFMS); format: biochemical; conditions: 5 nM METTL3/14, 0.2 μM RNA substrate, 0.5 μM SAM, 60 minutes at room temperature
Protocol: The enzymatic assay was established to determine IC50 values for inhibition of RNA methyltransferase activity. The enzyme used was full-length his-tagged METTL3 co-expressed with full length FLAG-tagged METTL14 in a baculovirus expression system. Enzymatic reactions were performed at room temperature in 384-well plates using a final reaction volume of 20 μL containing 20 mM TrisCl pH 7.6, 1 mM DTT, 0.01% Tween-20. 5 nM final concentration of METTL3/14 was pre-incubated with various compound concentrations for 10 minutes, followed by addition of 0.2 μM final concentration synthetic RNA substrate (5′P-[…]-3′) and 0.5 μM final concentration S-adenosyl-methionine (SAM). The reaction was incubated for a further 60 minutes at room temperature, and then quenched by the addition of 40 μL 7.5% TCA with two internal product standards (D4-SAH and 13C10-SAH). After termination, plates were sealed, centrifuged and stored at 4° C. until analysis.
RNA methyltransferase activity was measured label free using the RapidFire™ mass spectrometry (RF/MS) platform. Stopped and stable assay plates were analyzed on the Agilent RF300 integrated autosampler/solid-phase extraction (SPE) system coupled to an ABSciex 4000 mass spectrometer for the generation of the product S-adenosyl homocysteine (SAH) and normalized to the ratio of signal of the two internal product standards, respectively. Solvent A was water containing 0.1% (v/v) TCA. Solvent B was acetonitrile/0.1% ammonium acetate (8:2, v/v). More specifically, plates were centrifuged at 4350 rpm for 10 min, samples were aspirated under vacuum for 600 ms, then loaded onto a C18 solid-phase extraction cartridge and washed for 3 s with solvent A at a flow rate of 1.5 mL/min. Retained product and internal standards were eluted with solvent B at a flow rate of 1 mL/min for 3 s and finally the cartridge was re-equilibrated with solvent A for 500 ms. The mass transition for the product (SAH) was 384.9/135.9 Da. Transitions of the two internal product standards (IS1: D4-SAH and IS2: 13C10-SAH) were 389.1/135.8 Da and 395.0/134.2 Da, respectively. Ratios of SAH/IS1 and SAH/IS2 were used for normalization of matrix effects. IC50 values were calculated based on dilution series of individual compounds. Potency of a compound was measured at varied inhibitor concentrations and normalized to control wells without RNA substrate and without inhibition (DMSO only).

KASUMI-1 cells = assay: Kasumi cell proliferation CTG; format: cell-based; conditions: Homo sapiens, Kasumi 1, 120 h, treated for 120 hours, CellTiter-Glo
Protocol: Cell culture: KASUMI-1 cells (ACC20, Leibniz-Institut DSMZ Deutsche Sammlung von Mikroorganismen und Zellkulturen GmbH) were grown in RPMI 1640 (31870-025, Gibco) supplemented with 20% fetal bovine serum (F1524, Gibco), 1 mM sodium pyruvate (11360-039, Gibco) and 2 mM Glutamax (35050-038, Gibco) in a 5% CO2 humidified incubator at 37° C.
Cell treatment and cell growth assessment: KASUMI-1 cells were seeded in ultra-low attachment 384-well culture plate (MS-9384WZ, SBio) at a final concentration of 250 000 cells/ml (35 μL/well) and treated for 120 hours with compounds inhibiting the METTL3/14 activity (10 serial semi-log dilutions, 30 μM as top concentration). Upon treatment, Kasumi1 cells were incubated for 10 min at RT with the CellTiter-Glo reagent (G7571, Promega). Measurement of the luminescence signal was performed on a microplate reader (Ensight, PerkinElmer).

Caov-3 cells = assay: Caov3 cell proliferation CTG; format: cell-based; conditions: Homo sapiens, treated for 120 hours, CellTiter-Glo
Protocol: Cell treatment and cell growth assessment: 18 hours post-seeding in white 384-Viewplate (6007480, PerkinElmer) at 1500 cells/well, Caov3 cells were treated for 120 hours with compounds inhibiting the METTL3/14 activity (10 serial semi-log dilutions, 30 μM as top concentration). Upon treatment, Coav-3 cells were incubated for 10 min at RT with the CellTiter-Glo reagent (G7571, Promega). Measurement of the luminescence signal was performed on a microplate reader (Ensight, PerkinElmer).

Sequence of METTL3/14 (Q86U44 whole entry): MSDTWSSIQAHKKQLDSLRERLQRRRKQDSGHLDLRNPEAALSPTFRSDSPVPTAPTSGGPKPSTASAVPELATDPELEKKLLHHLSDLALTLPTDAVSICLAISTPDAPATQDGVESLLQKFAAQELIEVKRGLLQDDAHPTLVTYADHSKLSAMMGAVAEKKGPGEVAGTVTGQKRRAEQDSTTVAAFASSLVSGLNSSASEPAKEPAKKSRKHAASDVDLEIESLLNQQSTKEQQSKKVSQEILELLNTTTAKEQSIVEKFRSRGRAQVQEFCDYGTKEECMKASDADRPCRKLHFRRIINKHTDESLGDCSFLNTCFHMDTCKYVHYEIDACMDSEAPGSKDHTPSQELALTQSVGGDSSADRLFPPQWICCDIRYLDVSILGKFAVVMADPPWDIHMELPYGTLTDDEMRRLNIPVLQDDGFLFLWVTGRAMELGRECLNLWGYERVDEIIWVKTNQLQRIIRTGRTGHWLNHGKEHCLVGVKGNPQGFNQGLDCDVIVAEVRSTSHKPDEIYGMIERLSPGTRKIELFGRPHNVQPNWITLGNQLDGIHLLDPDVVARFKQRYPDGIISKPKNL
Sequence of METTL3/14 (Q9HCE5 whole entry partner): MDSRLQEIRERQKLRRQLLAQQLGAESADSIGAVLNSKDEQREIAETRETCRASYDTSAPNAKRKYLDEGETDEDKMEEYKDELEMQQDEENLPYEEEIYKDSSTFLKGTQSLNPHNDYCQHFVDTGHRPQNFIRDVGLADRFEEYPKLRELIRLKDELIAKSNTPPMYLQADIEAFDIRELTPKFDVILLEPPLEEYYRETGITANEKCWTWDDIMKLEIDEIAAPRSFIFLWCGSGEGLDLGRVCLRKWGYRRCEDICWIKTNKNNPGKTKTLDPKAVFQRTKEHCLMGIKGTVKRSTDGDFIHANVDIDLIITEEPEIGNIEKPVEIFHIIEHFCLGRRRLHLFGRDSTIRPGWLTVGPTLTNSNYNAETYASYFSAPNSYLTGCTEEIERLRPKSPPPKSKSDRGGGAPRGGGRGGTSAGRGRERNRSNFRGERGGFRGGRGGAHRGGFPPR

Row | SMILES | IC50 (METTL3/14) | IC50 (KASUMI-1 cells) | IC50 (Caov-3 cells)
1 | Nc1ncnc2c1c(Cl)cn2[C@@H]1C[C@H](c2ccc3cc(CNCC45CC(F)(C4)C5)[nH]c3c2)[C@@H](O)[C@H]1O [Example 30, (1R,2S,3R,5R)-3-{4-amino-5-chloro-7H-pyrrolo[2,3-d]pyrimidin-7-yl}-5-(2-{[({3-fluorobicyclo[1.1.1]pentan-1-yl}methyl)amino]methyl}-1H-indol-6-yl)cyclopentane-1,2-diol] | 6.1 nM | 1290 nM | 556 nM
2 | Nc1ncnc2c1c(F)cn2[C@@H]1C[C@H](c2ccc3cc(CNCC45CC(F)(C4)C5)[nH]c3c2)[C@@H](O)[C@H]1O [Example 29, (1R,2S,3R,5R)-3-{4-amino-5-fluoro-7H-pyrrolo[2,3-d]pyrimidin-7-yl}-5-(2-{[{{3-fluorobicyclo[1.1.1]pentan-1-yl}methyl)amino]methyl}-1H-indol-6-yl)cyclopentane-1,2-diol] | 6.1 nM | 2850 nM | 1540 nM
